In ChEMBL document CHEMBL1137447 (Bioorg Med Chem, 2007):

Tests used:
Ovis aries = species: Ovis aries; assay: Selectivity index, ratio of IC50 for ovine COX1 to IC50 for ovine COX2
[1] = Effect on nitric oxide release in pH 7.4 PBS buffer in presence of rat serum at 37 degC after 1.5 hrs; type: functional
[2] = Effect on nitric oxide release in pH 7.4 PBS buffer at 37 degC after 1.5 hrs; type: functional
[3] = biological target: T1, Prostaglandin G/H synthase 1 (Ovis aries, UniProt P05979); assay: Inhibition of ovine COX1 by enzyme immuno assay
T1 sequence (P05979 whole entry): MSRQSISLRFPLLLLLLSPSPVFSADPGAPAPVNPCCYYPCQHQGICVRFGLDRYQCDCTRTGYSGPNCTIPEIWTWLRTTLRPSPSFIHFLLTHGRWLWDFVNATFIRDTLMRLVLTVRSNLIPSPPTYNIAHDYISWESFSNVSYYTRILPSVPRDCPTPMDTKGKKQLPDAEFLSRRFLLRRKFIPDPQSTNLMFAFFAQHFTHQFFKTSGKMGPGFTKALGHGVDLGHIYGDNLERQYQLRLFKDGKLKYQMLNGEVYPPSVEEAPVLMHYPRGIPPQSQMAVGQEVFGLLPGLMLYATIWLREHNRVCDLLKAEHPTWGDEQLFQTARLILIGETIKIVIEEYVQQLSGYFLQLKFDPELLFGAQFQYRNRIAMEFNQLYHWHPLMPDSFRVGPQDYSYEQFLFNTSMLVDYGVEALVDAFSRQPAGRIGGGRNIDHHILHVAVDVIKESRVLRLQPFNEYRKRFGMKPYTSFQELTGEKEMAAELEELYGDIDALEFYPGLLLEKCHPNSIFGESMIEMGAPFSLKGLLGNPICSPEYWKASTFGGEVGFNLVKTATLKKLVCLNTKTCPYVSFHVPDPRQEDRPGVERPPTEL

| SMILES | Ratio IC50 (Ovis aries) | IC50 [3] | Activity [1] | Activity [2] |
| --- | --- | --- | --- | --- |
| CCN(CC)/[N+]([O-])=N\OCOC(=O)/C(=C/c1ccc(S(C)(=O)=O)cc1)c1ccc(NC(C)=O)cc1 | > 5.9 | > 100 µM | 70.4% | 6.5% |
| CCN(CC)/[N+]([O-])=N\OCOC(=O)/C(=C/c1ccc(S(C)(=O)=O)cc1)c1ccc(F)cc1 | 0.43 | 1 µM | 75.3% | 7.1% |
| CCN(CC)/[N+]([O-])=N/O |  |  | 85.1% | 85% |
| CCN(CC)/[N+]([O-])=N\OCOC(=O)/C(=C/c1ccc(S(C)(=O)=O)cc1)c1cccc(Br)c1 | 0.03 | 1.1 µM | 59.2% | 3.2% |

Now from value to compound, other results behind:

| Ratio IC50 (Ovis aries) | IC50 [3] | SMILES | Activity [1] | Activity [2] |
| --- | --- | --- | --- | --- |
| > 9.2 | > 100 µM | CS(=O)(=O)c1ccc(/C=C(/C(=O)OCO/N=[N+](/[O-])N2CCCC2)c2ccc(F)cc2)cc1 | 67.1% | 11.3% |
| 0.22 | 2.5 µM | CS(=O)(=O)c1ccc(/C=C(/C(=O)OCO/N=[N+](/[O-])N2CCCC2)c2cccc(Br)c2)cc1 | 48.6% | 6.9% |
| > 106 | > 100 µM | CC(=O)Nc1ccc(/C(=C\c2ccc(S(C)(=O)=O)cc2)C(=O)OCO/N=[N+](/[O-])N2CCCC2)cc1 | 73% | 9.9% |
